Experimental data published in patent publication EP1206941A1, “ACTIVITY PO[…] CHEMOTHERAPEUTICS, ANTICANCER COMPOSITIONS AND METHOD FOR POTENTIATING THE ACTIVITY OF CHEMOTHERAPEUTICS” (HISAMITSU PHARMACEUTICAL CO. INC., priority 1999, dated 2001).
Where two headings read alike, the source gives them in different places. *1 amine or outer side, *2 acyl side, *3 side chain or, on linkers, in order; H or OH if unused. Where a SMILES comes first, the peptide text is derived from it. Bridges are numbered along the chain shown (N, C = ends). Roman numbers before positions name the chains, in order. [ ]: non-standard residue; d: D form. Actinocin(9to1) = Cc1c2oc3c(C)ccc(C(=O)[*:1])c3nc-2c(C(=O)[*:2])c(N)c1=O; NMeV = CN[C@H](C(=O)O)C(C)C; Sar = CNCC(=O)O

System: Murine melanoma B16 · BL6 cells
Assay: Assay for apoptosis-inducing activity (TNF bioassay, crystal violet staining)
Type: cell-based
Settings: for potentiation of apoptosis-inducing activity: ED50 alone versus ED50 in the presence of peptide (SEQ ID NO:2) 50 µg/ml; for EC50: Mus musculus, B16-BL6, 19 h, 19 hours, Probit method, read-out: ED50 (apoptosis-inducing activity)
Description: The potentiating effects on the apoptosis-inducing activity of chemotherapeutic agents were evaluated based on whether or not the apoptosis-inducing activity of anticancer agents of the apoptosis-inducing type would be affected by the combined use of the aforementioned synthetic peptide.
Specifically, the apoptosis-inducing activity of anticancer agents of three kinds of apoptosis-inducing type agents was compared between the presence of the peptide and the absence of the peptide. Determination of the apoptosis-inducing activity was carried out according to TNF bioassay (K. Hirano et al., J. Biochem., 105, 120, 1989). The details are provided below.
A 96-well was coated with human plasma fibronectin at a concentration of 5 µg/ml (prepared according to the method of Fukai et al., J. Biol. Chem., 266, 8807, 1991) and was subjected to blocking with bovine serum albumin (Sigma), after which it was suspended in a serum-free culture: the culture was a mixture of Dulbeccos Modified Eagle Medium and Ham F12 medium at a volume ratio of 1:1 and will be referred to as DMEM/Ham medium hereafter (Nissui Pharmaceutical Co. Ltd.). Murine melanoma B16 · BL6 cells were inoculated onto the plate at 2x10^4 cells/well. After cell adhesion and distention were confirmed by cultivating the cells at 37 °C and under 5% CO2 atmosphere for 2 hours, the culture supernatant was removed and a mixed solution comprising a chemotherapeutic agent and the peptide was added thereto. Cultivation was conducted for 19 hours. The peptide was prepared to give a final concentration of 50 µg/ml, and the chemotherapeutic agents were dissolved in DMEM/Ham medium at a variety of concentrations. As controls, only the peptide and only the chemotherapeutic agent at the same concentrations as those described were added. Cultivation was conducted for 19 hours. In Example 9 doxorubicin (abbreviated as DOX) was used; in Example 10 VCR was used; and in Example 11 AcD was used. DOX was also purchased from Sigma. After cultivation, the above mixed solution was removed and exchanged with a DMEM/HaM medium containing 10% bovine fetal serum (URH Biosciences) for further cultivation overnight. After fixing with 5% formaldehyde (Wako Pure Chemical Industries Ltd.), the cells having undergone apoptosis were removed through washing and the cells adhered to the plate were stained with a 0.5% crystal violet solution. Excessive dye was washed out with water. After lyzing the cells with 1% SDS and extracting the dye, absorbance at a wavelength of 595 nm was measured with a microplate reader (Spectra Rainbow Thermo; Wako Pure Chemical Industries Ltd.).

[1] = chemotherapeutic agent used alone
[2] = in the presence of peptide (SEQ ID NO:2) 50 µg/ml

| SMILES | potentiation of apoptosis-inducing activity | EC50 [1] | EC50 [2] |
| --- | --- | --- | --- |
| CC[C@]1(O)C[C@H]2CN(CCc3c([nH]c4ccccc34)[C@@](C(=O)OC)(c3cc4c(cc3OC)N(C=O)[C@H]3[C@@](O)(C(=O)OC)[C@H](OC(C)=O)[C@]5(CC)C=CCN6CC[C@]43[C@@H]65)C2)C1 [VCR, vincristin] | ~27,000 fold | 111 µg/mL | 0.0036 µg/mL |
| Cc1c2oc3c(C)ccc(C(=O)N[C@@H]4C(=O)N[C@H](C(C)C)C(=O)N5CCC[C@H]5C(=O)N(C)CC(=O)N(C)[C@@H](C(C)C)C(=O)O[C@@H]4C)c3nc-2c(C(=O)N[C@@H]2C(=O)N[C@H](C(C)C)C(=O)N3CCC[C@H]3C(=O)N(C)CC(=O)N(C)[C@@H](C(C)C)C(=O)O[C@@H]2C)c(N)c1=O [AcD, actinomycin D] (I: T[dV]P[Sar][NMeV] / II: T[dV]P[Sar][NMeV]; ester I:1-I:C, II:1-II:C; linker I:N-II:N via Actinocin(9to1)) | ~40,000 fold | 763 nM | 0.0145 nM |
| COc1cccc2c1C(=O)c1c(O)c3c(c(O)c1C2=O)C[C@@](O)(C(=O)CO)C[C@@H]3O[C@H]1C[C@H](N)[C@H](O)[C@H](C)O1 [DOX, doxorubicin] | ~7.6 fold | 0.293 µg/mL | 0.039 µg/mL |
